The text below walks through data of ChEMBL document CHEMBL3259577, “Antagonists of the kappa opioid receptor” (Bioorg Med Chem Lett, 2014).

The target of series [1] is Sigma non-opioid intracellular receptor 1 (Homo sapiens, UniProt Q99720). Nature of the series: Binding affinity to sigma-1 receptor (unknown origin).
The target of series [2] is Muscarinic acetylcholine receptor M4 (Homo sapiens, UniProt P08173). Nature of the series: Binding affinity to muscarinic M4 receptor (unknown origin).
Series [3] concerns the target Alpha-2C adrenergic receptor (Homo sapiens, UniProt P18825). Nature of the series: Binding affinity to adrenergic alpha2C receptor (unknown origin).
The target of series [4] is Delta-type opioid receptor (Homo sapiens, UniProt P41143). The series is described as follows: Inhibition of delta opioid receptor (unknown origin) using SNC-80 by high content imaging beta-arrestin translocation assay.
In series [5] the target is Sodium-dependent noradrenaline transporter (Homo sapiens, UniProt P23975). Nature of the series: Binding affinity to NET (unknown origin).
Series [6] is described as follows: Drug metabolism in human liver microsomes assessed as compound remaining after 1 hr. It is filed as ADME. Particulars: read-out: Drug metabolism. In general terms: Liver microsomes are a subcellular fraction often used to study metabolism.
Series [7] has as its target Muscarinic acetylcholine receptor M3 (Homo sapiens, UniProt P20309). Nature of the series: Binding affinity to muscarinic M3 receptor (unknown origin).
Another series addresses Mu-type opioid receptor (Homo sapiens, UniProt P35372). The series is described as follows: Inhibition of mu opioid receptor (unknown origin) using DAMGO by high content imaging beta-arrestin translocation assay.
Series [8] addresses Muscarinic acetylcholine receptor M2 (Homo sapiens, UniProt P08172). Nature of the series: Binding affinity to muscarinic M2 receptor (unknown origin).
The target of series [9] is Muscarinic acetylcholine receptor M1 (Homo sapiens, UniProt P11229). Nature of the series: Binding affinity to muscarinic M1 receptor (unknown origin).
Series [10] deals with 5-hydroxytryptamine receptor 2B (Homo sapiens, UniProt P41595). Nature of the series: Binding affinity to 5-HT2B receptor (unknown origin).
Another series addresses Histamine H1 receptor (Homo sapiens, UniProt P35367). Nature of the series: Binding affinity to histamine H1 receptor (unknown origin).

Muscarinic acetylcholine receptor M1, sequence (P11229 whole entry): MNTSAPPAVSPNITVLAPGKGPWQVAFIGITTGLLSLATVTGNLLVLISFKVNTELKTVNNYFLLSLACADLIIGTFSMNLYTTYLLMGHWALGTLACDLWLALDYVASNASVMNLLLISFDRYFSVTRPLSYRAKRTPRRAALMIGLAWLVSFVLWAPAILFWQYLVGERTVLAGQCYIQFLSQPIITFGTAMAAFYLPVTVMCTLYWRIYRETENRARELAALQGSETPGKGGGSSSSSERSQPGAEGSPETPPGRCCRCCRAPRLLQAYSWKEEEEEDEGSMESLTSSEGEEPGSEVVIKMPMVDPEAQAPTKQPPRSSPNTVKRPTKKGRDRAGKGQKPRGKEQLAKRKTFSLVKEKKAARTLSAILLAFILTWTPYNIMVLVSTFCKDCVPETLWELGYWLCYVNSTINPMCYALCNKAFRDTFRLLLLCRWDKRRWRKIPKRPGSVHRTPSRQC
Muscarinic acetylcholine receptor M4, sequence (P08173 whole entry): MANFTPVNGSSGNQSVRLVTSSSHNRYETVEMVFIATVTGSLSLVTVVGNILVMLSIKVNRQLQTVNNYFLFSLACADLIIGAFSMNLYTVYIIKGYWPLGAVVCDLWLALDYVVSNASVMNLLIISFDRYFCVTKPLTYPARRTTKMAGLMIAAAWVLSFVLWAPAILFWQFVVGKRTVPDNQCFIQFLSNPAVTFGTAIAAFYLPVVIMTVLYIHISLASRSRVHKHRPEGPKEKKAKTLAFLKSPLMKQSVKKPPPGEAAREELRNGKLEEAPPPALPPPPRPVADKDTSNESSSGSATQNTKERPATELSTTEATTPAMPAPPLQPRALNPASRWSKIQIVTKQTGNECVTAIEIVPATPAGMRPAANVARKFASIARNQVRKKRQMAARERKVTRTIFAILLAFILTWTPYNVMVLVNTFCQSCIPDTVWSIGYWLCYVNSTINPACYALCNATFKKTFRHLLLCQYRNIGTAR
Delta-type opioid receptor, sequence (P41143 whole entry): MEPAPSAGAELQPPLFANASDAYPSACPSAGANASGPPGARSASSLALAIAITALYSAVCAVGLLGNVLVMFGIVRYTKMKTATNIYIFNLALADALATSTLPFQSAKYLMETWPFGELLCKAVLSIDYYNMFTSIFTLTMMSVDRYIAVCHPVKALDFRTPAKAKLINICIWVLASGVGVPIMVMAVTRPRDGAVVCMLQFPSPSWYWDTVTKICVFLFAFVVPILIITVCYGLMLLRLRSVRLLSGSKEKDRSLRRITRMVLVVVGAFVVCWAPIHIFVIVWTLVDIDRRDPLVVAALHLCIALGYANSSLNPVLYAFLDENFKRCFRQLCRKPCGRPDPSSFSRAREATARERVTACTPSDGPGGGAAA
Sigma non-opioid intracellular receptor 1, sequence (Q99720 whole entry): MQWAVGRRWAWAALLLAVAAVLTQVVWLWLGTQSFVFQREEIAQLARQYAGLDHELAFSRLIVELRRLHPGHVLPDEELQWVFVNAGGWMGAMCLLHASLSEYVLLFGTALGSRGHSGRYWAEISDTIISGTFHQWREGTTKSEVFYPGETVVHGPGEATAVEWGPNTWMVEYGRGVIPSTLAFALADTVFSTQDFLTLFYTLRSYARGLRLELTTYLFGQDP
Histamine H1 receptor, sequence (P35367 whole entry): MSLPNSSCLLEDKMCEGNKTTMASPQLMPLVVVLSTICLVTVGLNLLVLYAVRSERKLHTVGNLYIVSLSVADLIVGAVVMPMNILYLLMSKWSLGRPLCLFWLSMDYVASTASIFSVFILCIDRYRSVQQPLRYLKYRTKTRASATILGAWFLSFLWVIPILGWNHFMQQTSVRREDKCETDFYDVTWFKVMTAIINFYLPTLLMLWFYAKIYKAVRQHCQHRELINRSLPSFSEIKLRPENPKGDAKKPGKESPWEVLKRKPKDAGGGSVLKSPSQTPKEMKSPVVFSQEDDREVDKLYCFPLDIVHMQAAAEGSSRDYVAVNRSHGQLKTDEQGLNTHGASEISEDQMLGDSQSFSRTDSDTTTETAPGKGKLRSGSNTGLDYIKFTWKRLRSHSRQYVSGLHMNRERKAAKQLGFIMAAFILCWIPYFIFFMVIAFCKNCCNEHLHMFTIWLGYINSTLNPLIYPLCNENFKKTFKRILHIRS
Muscarinic acetylcholine receptor M3, sequence (P20309 whole entry): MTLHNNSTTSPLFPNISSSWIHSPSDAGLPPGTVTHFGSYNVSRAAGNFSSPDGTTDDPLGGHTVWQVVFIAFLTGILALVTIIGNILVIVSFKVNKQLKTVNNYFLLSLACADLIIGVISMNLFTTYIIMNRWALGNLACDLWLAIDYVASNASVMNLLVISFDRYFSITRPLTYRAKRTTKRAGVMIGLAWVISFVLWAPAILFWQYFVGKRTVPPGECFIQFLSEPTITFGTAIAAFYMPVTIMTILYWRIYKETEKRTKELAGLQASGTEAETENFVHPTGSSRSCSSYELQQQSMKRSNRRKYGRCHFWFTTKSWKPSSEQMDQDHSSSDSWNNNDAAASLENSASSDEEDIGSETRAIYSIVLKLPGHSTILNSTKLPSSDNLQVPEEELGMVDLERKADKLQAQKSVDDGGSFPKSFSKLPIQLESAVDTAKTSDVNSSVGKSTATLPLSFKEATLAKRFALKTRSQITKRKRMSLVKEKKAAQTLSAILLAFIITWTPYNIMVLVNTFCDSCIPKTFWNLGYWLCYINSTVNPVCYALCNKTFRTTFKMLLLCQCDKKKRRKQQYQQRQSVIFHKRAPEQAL
5-hydroxytryptamine receptor 2B, sequence (P41595 whole entry): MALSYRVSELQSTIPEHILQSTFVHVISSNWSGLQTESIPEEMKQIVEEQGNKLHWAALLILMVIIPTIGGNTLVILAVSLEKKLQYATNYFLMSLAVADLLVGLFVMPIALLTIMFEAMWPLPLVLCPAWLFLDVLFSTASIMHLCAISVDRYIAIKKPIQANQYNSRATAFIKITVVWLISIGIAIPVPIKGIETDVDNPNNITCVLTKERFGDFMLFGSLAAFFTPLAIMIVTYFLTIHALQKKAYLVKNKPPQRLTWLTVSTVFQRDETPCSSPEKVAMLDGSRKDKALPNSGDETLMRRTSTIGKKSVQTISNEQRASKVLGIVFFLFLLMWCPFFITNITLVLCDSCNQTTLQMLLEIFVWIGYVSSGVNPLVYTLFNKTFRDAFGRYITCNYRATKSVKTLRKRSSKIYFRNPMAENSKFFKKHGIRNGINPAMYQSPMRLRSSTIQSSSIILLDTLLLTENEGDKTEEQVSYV
Alpha-2C adrenergic receptor, sequence (P18825 whole entry): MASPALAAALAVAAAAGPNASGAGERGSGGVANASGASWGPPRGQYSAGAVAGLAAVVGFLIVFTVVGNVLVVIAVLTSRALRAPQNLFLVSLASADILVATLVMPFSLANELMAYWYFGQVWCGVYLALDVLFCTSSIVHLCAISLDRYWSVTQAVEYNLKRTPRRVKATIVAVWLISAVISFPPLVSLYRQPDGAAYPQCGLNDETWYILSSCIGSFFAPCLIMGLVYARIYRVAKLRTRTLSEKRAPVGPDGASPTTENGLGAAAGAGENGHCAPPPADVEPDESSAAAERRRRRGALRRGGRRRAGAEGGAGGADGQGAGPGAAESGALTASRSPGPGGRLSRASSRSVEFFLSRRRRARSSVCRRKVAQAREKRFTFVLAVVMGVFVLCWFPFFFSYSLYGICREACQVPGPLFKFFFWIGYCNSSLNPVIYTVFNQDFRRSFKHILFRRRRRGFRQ
Mu-type opioid receptor, sequence (P35372 whole entry): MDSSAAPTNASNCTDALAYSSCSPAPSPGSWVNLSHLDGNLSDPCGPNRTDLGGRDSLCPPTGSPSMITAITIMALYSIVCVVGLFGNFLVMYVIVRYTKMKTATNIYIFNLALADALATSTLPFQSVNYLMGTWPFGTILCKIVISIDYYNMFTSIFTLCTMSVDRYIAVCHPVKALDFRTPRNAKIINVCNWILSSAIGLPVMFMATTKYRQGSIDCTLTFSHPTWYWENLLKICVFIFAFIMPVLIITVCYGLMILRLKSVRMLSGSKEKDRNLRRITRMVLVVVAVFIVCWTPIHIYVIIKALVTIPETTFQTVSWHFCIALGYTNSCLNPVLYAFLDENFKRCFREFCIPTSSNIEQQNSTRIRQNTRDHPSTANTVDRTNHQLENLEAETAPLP
Muscarinic acetylcholine receptor M2, sequence (P08172 whole entry): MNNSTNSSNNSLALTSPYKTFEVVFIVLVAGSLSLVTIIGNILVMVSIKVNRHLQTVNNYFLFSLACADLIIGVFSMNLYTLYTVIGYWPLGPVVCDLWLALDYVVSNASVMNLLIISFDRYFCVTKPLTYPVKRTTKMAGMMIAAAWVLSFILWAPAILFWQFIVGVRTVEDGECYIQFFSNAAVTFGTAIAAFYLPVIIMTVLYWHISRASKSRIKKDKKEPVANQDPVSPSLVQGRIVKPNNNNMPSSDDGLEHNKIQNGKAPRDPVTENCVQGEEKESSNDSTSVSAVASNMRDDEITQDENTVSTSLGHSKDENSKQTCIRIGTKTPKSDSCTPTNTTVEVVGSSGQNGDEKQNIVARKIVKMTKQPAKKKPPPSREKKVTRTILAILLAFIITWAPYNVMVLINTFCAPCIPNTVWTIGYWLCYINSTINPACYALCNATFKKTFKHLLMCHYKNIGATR

One may read the Ki as the dissociation constant of the complex between target and ligand, obtained from inhibition or displacement. High values mean lower affinity, low ones higher affinity. A word on the IC50: it is the concentration that gives 50% inhibition. A higher IC50 goes with weaker potency in that assay. With `Cc1ccc(S(=O)(=O)NCc2ccc(C(=O)NCCN(Cc3ccccc3)C(C)C)cc2)cc1`, the Ki in series [1], in series [2], in series [3], in series [5], in [7] and in series [8] was under 1000 nM in each case. Moreover, the Ki (in series [9]; in series [10]; at Histamine H1 receptor) was under 1000 nM throughout. The results for the IC50 (in [4]; against Mu-type opioid receptor) were over 32000 nM and over 24000 nM, respectively. Moreover, in [6], the remaining at 1 h came to 0.07%.
